Legend:
EGFR = molecular target: T1, EGFR (Homo sapiens, UniProt P00533); assay: In vitro kinase assay, EGFR; format: biochemical; conditions: ATP 50 μM, average of three independent experiments in duplicate, read-out: IC50 EGFR kinase inhibition
T1 construct: purchased Enzo Life Sciences Inc, NY, USA; Signal Chem, Richmond, Canada
Experimental: (§1) The EGFR and c-Src kinase assays were performed in 96-well plates (NuncMaxisorp) coated with PGT (poly L-glutamic acid L-tyrosine, 4:1, Sigma Aldrich, MO, USA) and incubated at 37°C for 48h prior to using. PGT served as the substrate to be phosphorylated by EGFR (Enzo Life Sciences Inc, NY, USA, Signal Chem, Richmond, Canada) and c-Src (Enzo Life Sciences Inc, NY, USA, Signal Chem, Richmond, Canada) in the presence of ATP (50 μM). […] To each well, 15 ng of EGFR (20 μg/ml) or 6 ng of c-Src (0.1 μg/μl) were added. The phosphorylated substrate was detected using an HRP-conjugated anti-phosphotyrosine antibody (Santa Cruz Biotechnology, CA). The signal was developed by the addition of 3, 3’, 5, 5’-tetramethylbenzidine peroxidase substrate (Kierkegaard and Perry Laboratories, Gaithersburg, MD) and the colorimetric reaction was monitored at 450 nm using a microplate reader ELx808 (BioTek Instruments). The IC50 values were calculated using GraphPad Prism 6.0 (GraphPadSoftware, Inc., San Diego, CA). Each experiment was carried out at least three times, in duplicate.

c-Src = molecular target: T2, c-Src (Homo sapiens, UniProt P12931); assay: In vitro kinase assay, c-Src; format: biochemical; conditions: ATP 50 μM, read-out: IC50 c-Src kinase inhibition
T2 construct: purchased Enzo Life Sciences Inc, NY, USA; Signal Chem, Richmond, Canada
T2 sequence (P12931 whole entry): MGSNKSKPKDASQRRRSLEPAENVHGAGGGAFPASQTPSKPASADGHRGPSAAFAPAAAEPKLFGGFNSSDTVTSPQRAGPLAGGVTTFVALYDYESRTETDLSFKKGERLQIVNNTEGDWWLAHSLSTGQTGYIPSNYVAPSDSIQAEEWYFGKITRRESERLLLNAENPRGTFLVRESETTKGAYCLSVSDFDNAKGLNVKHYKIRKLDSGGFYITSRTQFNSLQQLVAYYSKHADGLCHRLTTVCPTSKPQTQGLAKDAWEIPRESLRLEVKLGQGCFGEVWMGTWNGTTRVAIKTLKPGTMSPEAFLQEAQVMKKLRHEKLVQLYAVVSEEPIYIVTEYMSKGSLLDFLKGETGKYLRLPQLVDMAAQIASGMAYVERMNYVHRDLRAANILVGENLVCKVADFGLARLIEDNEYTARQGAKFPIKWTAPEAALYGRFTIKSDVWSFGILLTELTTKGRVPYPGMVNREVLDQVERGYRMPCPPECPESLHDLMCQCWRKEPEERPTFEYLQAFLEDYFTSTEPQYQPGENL
Experimental: as §1

phospho-EGFR (Y1068) = assay: Western blot of EGFR phosphorylation in cells; format: cell-based, mouse
Experimental: (§2) NIH3T3-Her14 and 4T1 cells grown in 10% FBS containing media were plated (~ 1 x 10^6 cells/well) in 6-well plates and allowed to attach overnight (37°C, 5% CO2). The cells were rinsed twice with PBS twenty-four hours later and starved overnight on addition of serum-free media. Thereafter, they were treated with different doses of AL776 for 2 hours, washed with PBS (twice) and stimulated with 50 ng/ml EGF for 30 min at 37°C. Cells were washed, detached by scraping in ice-cold PBS and collected by centrifugation for 15 min at 3000 rpm. Cell pellets were re-suspended in cold lysis buffer 50 mM Tris-HCl pH 7.5; 150 mM NaCl; 1% Nonidet P-40, 1 mM EDTA; 5 mM NaF; 1 mM Na3VO4; protease inhibitor tablet (Roche Biochemicals, Laval, Canada)]. Lysates were kept on ice for 1 h and collected by centrifugation at 13,000 rpm for 20 min at 4°C. The concentration of protein was determined using the Bio-Rad protein assay kit (Bio-Rad laboratories, Hercules, CA). Equal amounts of proteins were loaded, resolved on 10% SDS-PAGE and thereafter transferred to a polyvinylidenedifluoride (PVDF) membrane (Milipore, Bedford, MA). […]

phospho-Src (Y416) = assay: Western blot of c-Src phosphorylation in cells; format: cell-based, mouse
Experimental: as §2

[1] = LC-MS analysis of AL776 hydrolysis in plasma in vivo; design: species or system CD-1 mice
Experimental: CD-1 mice were divided into groups of three and treated with 80 mg/kg of AL776, injected intraperitoneally (i.p) or intravenously (i.v). Mice were sacrificed and their plasma was collected for further analysis after 0, 5, 15 and 30 min after drug treatment. Plasma samples were extracted using twice the volume of methanol and lysed at 13,000 rpm for 30 min at 4°C. The resulting supernatant from each sample was collected, filtered and evaporated to dryness before reconstituting in 100 μL of methanol. LC-MS analyses were performed on a Synapt G2-S instrument coupled with an Acquity UPLC Class I system both from Waters. Elution rate was set at 500 μL/min using an Eclipse XDB C8, 3.5 um, 2.1 x 100 mm chromatographic column from Agilent Technologies. The experiments were performed with the following eluents: 0.1% aqueous formic acid (eluent A) and methanol (eluent B). The initial mobile phase was 30% B, which was maintained for 0.2 min at the beginning of the run. The following gradient elution was subsequently applied: 30 to 50% B from 0.2 to 4 min; 50 to 80% B from 4 to 10 min; held at 80% B from 10 to 11 min. Thereafter, eluent B was decreased to 30% in 0.2 min and held constant for up to 15 min to allow the column to equilibrate. Each sample was diluted with methanol in order to avoid detector saturation and […] aliquots of the resulting solutions were injected. Analyses were performed with the electrospray interface in positive ion mode and mass spectra acquired from m/z 100 to 1200. For accurate mass determination, Leucine Enkephalin was used as lock mass. The MassLynx software was used for instrument control, data acquisition and data processing.

4T1 tumours = format: in vivo; conditions: 40 mg/kg i.v. once/day for 5 days
4T1 cells = assay: Growth inhibition, SRB assay, 4T1; conditions: Mus musculus, 4T1, 120 h, read-out: IC50 growth inhibition 4T1
Experimental: (§3) Growth inhibition was measured in cells using the sulforhodamine B (SRB) assay [48]. […] The plates were subsequently rinsed with 1% acetic acid, and allowed to dry overnight. […] The results were analyzed using GraphPad Prism 6.0 (GraphPadSoftware, Inc., San Diego, CA) and the sigmoidal dose response curve was used to determine IC50 values. Each experiment was carried out at least four times, in triplicate.

[2] = tested on: NIH3T3-Her14 (EGFR transfected) cells; assay: Growth inhibition, SRB assay, NIH3T3-Her14
Experimental: as §3

[3] = tested on: c-Src phosphorylation in 4T1 tumours; assay: Pharmacodynamics in 4T1 tumours, c-Src phosphorylation; conditions: i.v., AL776 40 mg/kg, gefitinib + dasatinib 20 mg/kg each
Experimental: Mice were implanted with 4T1 mammary tumour cells, 15 million cells/flank (suspended in 200 μL PBS), subcutaneously.
Mice were sacrificed 1h or 24h after treatment and their tumours were collected and snap frozen at -80°C for further analysis using western blots. Tumours were crushed using a mortar/pestle chilled using liquid nitrogen and lysed with RIPA buffer diluted to a 1X concentration and supplemented with 1mM PMSF (Cell Signaling Technology, USA). Western blot analysis was carried out with the tumour samples, similar to the method described earlier.

[4] = NIH3T3-Her14 and 4T1 cells, 2 h drug, EGF 50 ng/ml 30 min

T1 sequence (P00533 25-1210): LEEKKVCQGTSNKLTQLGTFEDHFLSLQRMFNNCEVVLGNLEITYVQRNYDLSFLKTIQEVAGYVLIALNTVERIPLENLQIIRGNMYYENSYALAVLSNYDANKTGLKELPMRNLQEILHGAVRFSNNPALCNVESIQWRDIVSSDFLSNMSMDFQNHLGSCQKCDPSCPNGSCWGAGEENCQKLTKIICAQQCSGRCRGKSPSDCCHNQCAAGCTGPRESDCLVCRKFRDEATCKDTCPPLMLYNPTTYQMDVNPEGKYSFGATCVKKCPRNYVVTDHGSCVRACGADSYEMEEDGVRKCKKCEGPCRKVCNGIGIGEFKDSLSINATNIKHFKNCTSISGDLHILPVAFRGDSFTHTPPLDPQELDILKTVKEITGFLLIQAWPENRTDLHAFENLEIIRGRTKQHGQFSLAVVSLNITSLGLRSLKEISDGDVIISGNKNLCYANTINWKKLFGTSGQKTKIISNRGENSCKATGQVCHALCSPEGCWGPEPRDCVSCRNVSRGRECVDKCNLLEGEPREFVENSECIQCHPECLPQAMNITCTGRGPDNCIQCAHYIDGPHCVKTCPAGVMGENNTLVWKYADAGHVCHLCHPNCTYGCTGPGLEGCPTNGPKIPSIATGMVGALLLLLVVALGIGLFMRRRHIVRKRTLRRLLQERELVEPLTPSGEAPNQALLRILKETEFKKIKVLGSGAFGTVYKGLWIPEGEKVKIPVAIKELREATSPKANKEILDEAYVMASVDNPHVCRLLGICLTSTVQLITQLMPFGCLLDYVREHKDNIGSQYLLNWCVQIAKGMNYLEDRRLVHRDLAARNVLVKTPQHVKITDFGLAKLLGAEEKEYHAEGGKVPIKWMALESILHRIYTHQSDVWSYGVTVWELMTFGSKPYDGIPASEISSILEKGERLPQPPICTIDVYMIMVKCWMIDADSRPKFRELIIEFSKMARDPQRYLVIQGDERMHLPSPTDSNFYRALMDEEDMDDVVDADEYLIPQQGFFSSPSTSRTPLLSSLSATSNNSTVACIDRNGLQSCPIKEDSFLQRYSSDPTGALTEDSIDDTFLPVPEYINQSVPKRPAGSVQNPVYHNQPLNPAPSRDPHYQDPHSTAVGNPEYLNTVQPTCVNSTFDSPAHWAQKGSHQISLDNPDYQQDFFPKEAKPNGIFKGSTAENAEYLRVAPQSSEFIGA

Cc1nc(Nc2ncc(C(=O)Nc3c(C)cccc3Cl)s2)cc(N2CCN(CCOC(=O)CCC(=O)OCCN(C)Cc3ccc(C(=O)Nc4ccc5ncnc(Nc6cccc(Cl)c6)c5c4)cc3)CC2)n1 [AL776]
IC50 (EGFR): 120 nM
IC50 (c-Src): 3 nM
Concentration of maximal inhibition of EGFR phosphorylation (phospho-EGFR (Y1068); [4]): 1 µM
Concentration of robust inhibition of EGFR phosphorylation in cells (phospho-EGFR (Y1068); in cells): 0.25 to 1 µM
Concentration of maximal inhibition of c-Src phosphorylation (phospho-Src (Y416); [4]): 1 µM
Concentration of robust inhibition of c-Src phosphorylation in cells (phospho-Src (Y416); in cells): 0.25 to 1 µM
Intact AL776 in plasma ([1]; 80 mg/kg i.p., early time points): no intact AL776 found in plasma
Intact AL776 in plasma ([1]; 80 mg/kg i.v., 30 min post-administration): barely detectable levels
Tumour mass at end of study, control versus treated (4T1 tumours): no difference observed
Effect on tumour growth (tumour volume) (4T1 tumours; monitored two weeks): unable to block tumour growth
IC50 (4T1 cells): 70 ± 10 nM
Rank of growth inhibitory potency among the binary targeting molecules ([2]; EGFR transfectant, S2 Fig.): most potent on the EGFR transfectant
IC50 ([2]; Mus musculus, 120 h, read-out: IC50 growth inhibition NIH3T3 – Her14): 180 nM
Growth inhibitory potency compared with gefitinib or dasatinib ([2]; NIH3T3-Her14 cells, 5 days): 2–4 fold
Inhibition of c-Src phosphorylation in tumours ([3]; 1h post-administration): strong blockade
Inhibition of c-Src phosphorylation in tumours ([3]; 24 h post-treatment): reversed
